Laboratory results taken from PubChem BioAssay (NCI).
Where “and” joins values, the source holds several entries; their conditions need not be identical. Identical values can stand only once.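 Cells were grown in 96-well plates and exposed to each compound for 48 hours at five concentrations; endpoints were interpolated linearly between bracketing concentrations, or set to the highest concentration if not reached. The concentration for 50% growth inhibition is given as GI50. TGI denotes the concentration required for complete inhibition of growth.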

Columns and labels:
Test in all cases: inhibition of tumour cell growth, NCI panel, 48 h
MALME-3M melanoma = system: MALME-3M melanoma
OVCAR-5 ovarian = system: OVCAR-5 ovarian
SF-268 CNS = system: SF-268 CNS
SNB-19 CNS = system: SNB-19 CNS
COLO 205 colon = system: COLO 205 colon
CAKI-1 renal = system: CAKI-1 renal
U251 CNS = system: U251 CNS
SK-OV-3 ovarian = system: SK-OV-3 ovarian
MDA-MB-435 = system: MDA-MB-435
T-47D breast = system: T-47D breast

## Cc1cc(N(CCC#N)CCC#N)ccc1/C=C(\NC(=O)/C=C/c1ccccc1)C(=O)Nc1ccccc1Cl
MALME-3M melanoma
  TGI: > 100 µM
OVCAR-5 ovarian
  TGI: > 100 µM
SF-268 CNS
  TGI: > 100 µM
SNB-19 CNS
  TGI: > 100 µM
COLO 205 colon
  TGI: > 100 µM
CAKI-1 renal
  TGI: > 100 µM
U251 CNS
  TGI: > 100 µM

## O=C(/C=C/c1ccccc1)c1ccc(Cl)cc1Cl
MALME-3M melanoma
  TGI: 46.1 µM
OVCAR-5 ovarian
  TGI: 39.5 µM
SF-268 CNS
  TGI: 59.8 µM
SNB-19 CNS
  TGI: 65.2 µM
COLO 205 colon
  TGI: 37.2 µM
CAKI-1 renal
  TGI: 64 µM
SK-OV-3 ovarian
  TGI: 85.3 µM
U251 CNS
  TGI: 34.6 µM

## CCCC1C[C@H]2CCCCN2[C@H]2CCCN12 (stereo partly specified)
MALME-3M melanoma
  TGI: > 100 µM
OVCAR-5 ovarian
  TGI: > 100 µM
SF-268 CNS
  TGI: > 100 µM
SNB-19 CNS
  TGI: > 100 µM
COLO 205 colon
  TGI: > 83.4 µM
CAKI-1 renal
  TGI: > 100 µM
SK-OV-3 ovarian
  TGI: > 100 µM
U251 CNS
  TGI: > 68 µM

## O=C(N/C(=C\c1ccc([N+](=O)[O-])cc1)c1nc2ccccc2s1)c1ccccc1
MALME-3M melanoma
  TGI: > 100 µM
OVCAR-5 ovarian
  TGI: > 100 µM
SF-268 CNS
  TGI: 56.2 µM
SNB-19 CNS
  TGI: > 100 µM
COLO 205 colon
  TGI: > 100 µM
CAKI-1 renal
  TGI: 95.8 µM
SK-OV-3 ovarian
  TGI: > 100 µM
U251 CNS
  TGI: > 100 µM

## COc1ccc(/C=C/C(=N\NC(=O)c2ccccc2)c2sc(Nc3ccc([N+](=O)[O-])cc3)nc2C)cc1OC
MALME-3M melanoma
  TGI: 43.1 µM
OVCAR-5 ovarian
  TGI: > 100 µM
SF-268 CNS
  TGI: 33.5 µM
SNB-19 CNS
  TGI: 32.5 µM
COLO 205 colon
  TGI: > 100 µM
CAKI-1 renal
  TGI: 32.8 µM
SK-OV-3 ovarian
  TGI: > 100 µM
U251 CNS
  TGI: 18.6 µM

## COC(=O)CC1(O)C(=O)OCc2c1cc1n(c2=O)Cc2c-1nc1ccccc1c2OC (stereo unspecified)
MALME-3M melanoma
  TGI: > 100 µM
OVCAR-5 ovarian
  TGI: > 100 µM
SF-268 CNS
  TGI: > 34 µM
SNB-19 CNS
  TGI: 66.2 µM
COLO 205 colon
  TGI: > 100 µM
CAKI-1 renal
  TGI: 4.62 µM
SK-OV-3 ovarian
  TGI: 17.4 µM
U251 CNS
  TGI: 2.11 µM

## C/C=C/C=C/c1cc2cc3c(c(O)c2c(=O)[nH]1)C1(CC3)C(O)=c2c(=O)c3c(=O)cc(OC)c(=O)c=3c(=O)c2=C1O (stereo unspecified)
MALME-3M melanoma
  TGI: 2.19 µM and 12.9 µM
SF-268 CNS
  TGI: 17.6 µM and 40.3 µM
MDA-MB-435
  TGI: 10.8 µM
SNB-19 CNS
  TGI: 14.5 µM and 13.9 µM
COLO 205 colon
  TGI: 1.23 µM and 6.92 µM
SK-OV-3 ovarian
  TGI: 16 µM and 8.75 µM
U251 CNS
  TGI: 0.851 µM and 5.59 µM

## Cc1cc(Cl)ccc1N=C1NC(=O)C(CC(=O)Nc2cccc(Cl)c2)S1 (stereo unspecified)
MALME-3M melanoma
  TGI: > 100 µM
OVCAR-5 ovarian
  TGI: 87.4 µM
SF-268 CNS
  TGI: > 100 µM
SNB-19 CNS
  TGI: > 100 µM
COLO 205 colon
  TGI: > 100 µM
CAKI-1 renal
  TGI: > 100 µM
SK-OV-3 ovarian
  TGI: > 100 µM
U251 CNS
  TGI: > 100 µM

## O=C1/C(=C/c2ccc(Cl)cc2)CCC1CNc1ccc(Cl)cc1 (stereo unspecified)
MALME-3M melanoma
  TGI: 44.8 µM
OVCAR-5 ovarian
  TGI: > 77.3 µM
SF-268 CNS
  TGI: 40.6 µM
MDA-MB-435
  TGI: 37.6 µM
SNB-19 CNS
  TGI: 35.7 µM
COLO 205 colon
  TGI: 15.8 µM
CAKI-1 renal
  TGI: 28.9 µM
SK-OV-3 ovarian
  TGI: > 31.4 µM
U251 CNS
  TGI: 29.6 µM

## CCOc1ccc2nc(NC(=O)C(=O)C3C(=O)C(CC4C(=O)c5ccccc5C4=O)C(=O)CC3(C)C)sc2c1 (stereo unspecified)
OVCAR-5 ovarian
  TGI: > 100 µM
SF-268 CNS
  TGI: > 100 µM
MDA-MB-435
  TGI: > 100 µM
SNB-19 CNS
  TGI: > 100 µM
COLO 205 colon
  TGI: > 100 µM
CAKI-1 renal
  TGI: > 100 µM
SK-OV-3 ovarian
  TGI: > 100 µM
U251 CNS
  TGI: > 100 µM

## N=C(N)c1ccc2oc3ccc(C(=N)N)cc3c(=O)c2c1
MALME-3M melanoma
  TGI: > 100 µM
OVCAR-5 ovarian
  TGI: > 100 µM
T-47D breast
  TGI: > 100 µM
SF-268 CNS
  TGI: > 100 µM
MDA-MB-435
  TGI: > 100 µM
SNB-19 CNS
  TGI: > 100 µM
COLO 205 colon
  TGI: > 100 µM
CAKI-1 renal
  TGI: > 100 µM
U251 CNS
  TGI: > 100 µM

## COc1cc(C(=O)c2cnc(-c3c[nH]c4cccc(C)c34)[nH]2)cc(OC)c1OC
MALME-3M melanoma
  GI50: 11.4 µM
  TGI: > 100 µM
OVCAR-5 ovarian
  GI50: 0.0746 µM
  TGI: > 100 µM
SF-268 CNS
  GI50: 0.00862 µM
  TGI: > 100 µM
MDA-MB-435
  GI50: 0.00222 µM
  TGI: 0.0051 µM
SNB-19 CNS
  GI50: 0.00505 µM
  TGI: > 100 µM
COLO 205 colon
  GI50: 0.00513 µM
  TGI: 0.0412 µM
CAKI-1 renal
  TGI: > 100 µM
SK-OV-3 ovarian
  GI50: 0.0065 µM
  TGI: 2.5 µM
U251 CNS
  GI50: 0.00639 µM
  TGI: 49.1 µM

## CC1[C@@]2(CCC(C)(C)O2)O[C@@H]2C=C3C4CCC5Cc6nc7c(nc6C[C@@]5(C)C4C[C@H](O)[C@@]3(C)[C@]12O)CC1CCC2C3=C[C@H]4O[C@@]5(O[C@@](C)(CO)C[C@@H]5O)C(C)[C@@]4(O)[C@]3(C)[C@@H](O)CC2[C@]1(C)C7 (stereo partly specified)
MALME-3M melanoma
  GI50: 0.0101 µM
OVCAR-5 ovarian
  GI50: 0.00586 µM
SF-268 CNS
  GI50: 0.00464 µM
  TGI: 0.904 µM and 0.125 µM
SNB-19 CNS
  GI50: 0.041 µM
  TGI: 0.808 µM and 0.82 µM
COLO 205 colon
  GI50: 0.0141 µM
  TGI: 0.472 µM and 0.0525 µM
CAKI-1 renal
  GI50: 0.0195 µM
  TGI: 0.66 µM
SK-OV-3 ovarian
  GI50: 0.00178 µM
U251 CNS
  GI50: 0.00043 µM

## COc1cc(C2CC(c3ccccc3)=NN2C=O)ccc1Oc1ccnc2cc(Cl)ccc12 (stereo unspecified)
OVCAR-5 ovarian
  GI50: > 100 µM
  TGI: > 100 µM
T-47D breast
  GI50: 10.3 µM
  TGI: 39.7 µM
SF-268 CNS
  GI50: 23.2 µM
  TGI: > 100 µM
SNB-19 CNS
  GI50: 26.6 µM
  TGI: > 100 µM
COLO 205 colon
  GI50: > 100 µM
  TGI: > 100 µM
CAKI-1 renal
  GI50: 5.2 µM
  TGI: > 100 µM
SK-OV-3 ovarian
  GI50: 4.56 µM
  TGI: > 100 µM
U251 CNS
  GI50: 19.8 µM
  TGI: > 100 µM

## CC(=O)CCC1(c2ccccc2)OC(=O)C(C#N)=C1c1ccccc1 (stereo unspecified)
MALME-3M melanoma
  TGI: > 100 µM
OVCAR-5 ovarian
  TGI: > 100 µM
SF-268 CNS
  TGI: > 100 µM
SNB-19 CNS
  TGI: > 100 µM
COLO 205 colon
  TGI: > 100 µM
SK-OV-3 ovarian
  TGI: > 100 µM
U251 CNS
  TGI: > 100 µM

## CCc1ccc2c(c1)C(=O)c1c-2n(CCCN)c(=O)c2cc(OC)c(OC)cc12
MALME-3M melanoma
  GI50: 0.5 µM
  TGI: 2.1 µM
OVCAR-5 ovarian
  GI50: 1.82 µM
  TGI: 3.24 µM
MDA-MB-435
  GI50: 1.97 µM
  TGI: 3.55 µM
SNB-19 CNS
  GI50: 1.85 µM
  TGI: 3.46 µM
SK-OV-3 ovarian
  GI50: 2 µM
  TGI: 3.58 µM
U251 CNS
  GI50: 1.69 µM
  TGI: 3.11 µM

## CC(C)c1ccc(O)c(Cc2cc(C(C)C)cc(Cc3cc(C(C)C)ccc3O)c2O)c1
MALME-3M melanoma
  TGI: 2.82 µM
OVCAR-5 ovarian
  TGI: 3.13 µM
SF-268 CNS
  TGI: 4.01 µM
SNB-19 CNS
  TGI: 3.12 µM
COLO 205 colon
  TGI: 12.3 µM
CAKI-1 renal
  TGI: 2.91 µM
SK-OV-3 ovarian
  TGI: 3.05 µM
U251 CNS
  TGI: 3.17 µM

## COC(=O)[C@@]12OC[C@]34[C@H]([C@@H](O)[C@@H]1O)[C@@]1(C)CC(=O)C(O)=C(C)[C@@H]1C[C@H]3OC(=O)[C@H](OC(=O)/C=C(\C)C(C)C)[C@@H]24
MALME-3M melanoma
  TGI: 0.00498 µM and 0.0263 µM
T-47D breast
  TGI: 0.0581 µM
MDA-MB-435
  TGI: 0.0415 µM and 0.0128 µM
SNB-19 CNS
  GI50: 0.00464 µM
  TGI: 0.0214 µM and 0.145 µM
COLO 205 colon
  TGI: 0.0167 µM and 0.0586 µM
CAKI-1 renal
  TGI: 0.055 µM and 0.0295 µM and 0.159 µM
SK-OV-3 ovarian
  TGI: 0.0254 µM and 0.175 µM
U251 CNS
  TGI: 0.0206 µM and 0.0657 µM

## O=C1C(Cl)=C(Nc2ccc(S(=O)(=O)c3ccc(NC4=C(Cl)C(=O)c5ccccc5C4=O)cc3)cc2)C(=O)c2ccccc21
MALME-3M melanoma
  GI50: 2.13 µM
  TGI: 3.88 µM
OVCAR-5 ovarian
  GI50: 1.92 µM
  TGI: 3.81 µM
SNB-19 CNS
  GI50: 3.11 µM
  TGI: 13.9 µM
COLO 205 colon
  GI50: 1.74 µM
  TGI: 3.22 µM
CAKI-1 renal
  GI50: 1.38 µM
  TGI: 2.74 µM
SK-OV-3 ovarian
  GI50: 2.4 µM
  TGI: 7.94 µM

## COC(=O)C(=O)C(C(=O)C(=O)Nc1ccc([N+](=O)[O-])cc1)c1nc2ccccc2[nH]c1=O (stereo unspecified)
MALME-3M melanoma
  TGI: > 100 µM
SF-268 CNS
  TGI: > 100 µM
SNB-19 CNS
  TGI: > 100 µM
COLO 205 colon
  TGI: > 100 µM
CAKI-1 renal
  TGI: > 100 µM
SK-OV-3 ovarian
  TGI: > 100 µM
U251 CNS
  TGI: > 100 µM

## COc1cc2c(oc(=O)c3c4occc4cc(OC)c23)c2cccc(O)c12
MALME-3M melanoma
  TGI: > 100 µM
OVCAR-5 ovarian
  TGI: > 100 µM
SF-268 CNS
  TGI: > 100 µM
SNB-19 CNS
  TGI: > 100 µM
COLO 205 colon
  TGI: > 100 µM
CAKI-1 renal
  TGI: > 100 µM
SK-OV-3 ovarian
  TGI: > 100 µM
U251 CNS
  TGI: > 100 µM
